The text below walks through data of paper PMC9304322, “Targeting retinoic acid receptor alpha-corepressor interaction activates chaperone-mediated autophagy and protects against retinal degeneration” (Nature Communications, 2022).

The assay addresses T1, RARα and the N-CoR1 peptide (Homo sapiens, UniProt P10276).
T1 construct: human RARα (residues 176-421); His6-SUMO (N, cleaved yes); made in house; host or cells: Escherichia coli BL21(DE3) RIL
In words: Fluorescence polarization binding assay, RARα LBD and FITC-N-CoR1 peptide. The conditions noted are these: 10 μΜ compound. As for the experimental part: The ligand binding domain (LBD) of the human RARα (residues 176-421) was fused to a preceding His6-SUMO tag separated by a ubiquitin-like protease (ULP1) cleavage site and was expressed in Escherichia coli BL21(DE3) RIL cell strain. Cells were grown at 37 °C in LB medium supplemented with 50 µg/mL kanamycin until OD600 reached about 0.8. Expression of T7 polymerase was induced by addition of isopropyl-b-d-thiogalactoside (IPTG, #10724815001) to a final concentration of 0.8 mM and cells were incubated at 20 °C overnight. Cell cultures were harvested by centrifugation at 8,000 × g for 15 mins. The cell pellet from 1 liter of LB growth was resuspended in 50 mL lysis buffer (20 mM Tris-HCl pH 8, 500 mM NaCl, 25 mM imidazole) supplemented with one complete™, EDTA-free protease inhibitor tablet (Roche Applied Science, #11873580001). The suspension was lysed using a high pressure homogenizer and centrifuged at 35,000 × g at 4 °C for 45 minutes. […]
The fluorescein-tagged peptide of N-CoR1, FITC-Ahx-[…] […] Fluorescence polarization assays (FPA) were performed using established procedures. […] Fluorescence polarization was measured at 30 min on a F200 PRO microplate reader (TECAN) with the excitation wavelength set at 470 nm and emission measured at 530 nm. EC50 values were calculated by nonlinear regression analysis of competitive binding curves using GraphPad Prism software.

T1 sequence (P10276 176-421, other chains not shown): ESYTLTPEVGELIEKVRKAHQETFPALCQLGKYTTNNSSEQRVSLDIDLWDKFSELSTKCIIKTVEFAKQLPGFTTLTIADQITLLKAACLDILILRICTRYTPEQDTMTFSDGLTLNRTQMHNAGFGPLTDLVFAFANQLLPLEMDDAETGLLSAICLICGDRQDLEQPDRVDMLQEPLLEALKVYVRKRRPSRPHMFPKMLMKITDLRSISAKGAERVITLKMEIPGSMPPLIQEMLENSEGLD

In the case of `CC(=O)Nc1ccc(C2=Nc3ccc(Cl)cc3OC2)cc1` [CA77], the “N-CoR1 peptide binding to RARα in fluorescence polarization assays” value is given as “enhanced N-CoR1 peptide binding to RARα”. On to `Clc1ccc2c(c1)OCC(c1ccc(-c3ccccc3)cc1)=N2` [CA39], for which the “N-CoR1 peptide binding to RARα in fluorescence polarization assays” value is on record as “enhanced N-CoR1 peptide binding to RARα”.
